Earlier results, collected in article PMC4084622 (Journal of Medicinal Chemistry, 2014).

Test system: M. tuberculosis
Conditions: M. tuberculosis H37Rv, Erdman, and drug-resistant strains; cited from earlier work

CC(C)=CCC/C(C)=C/CNCCNC1C2CC3CC(C2)CC1C3 (stereo not shown) [compound 1, SQ109]
minimum inhibitory concentration (MIC): 0.7 to 1.56 µM
